Consider ten compounds from paper PMC8621172, “Manipulating Estrogenic/Anti-Estrogenic Activity of Triphenylethylenes towards Development of Novel Anti-Neoplastic SERMs” (International Journal of Molecular Sciences, 2021).

For one test, the system named is 60 NCI tumor cell lines. Nature of the test: NCI-60 single-dose growth inhibition screen (SRB). The format is cell-based, human. To be noted: for anti-proliferative activity (in words): 10 µM, NCI-60 panel and MCF-7; for inhibition at 10 µM: Homo sapiens, mean over 60 NCI tumor cell lines. The procedure: The anti-proliferative effects of the novel analogs were tested in vitro by the National Cancer Institute (NCI) on a panel of 60 human tumor cell lines at 10 µM. Compounds that elicited mean growth inhibition ≥50% were selected by the NCI for 5-dose testing.
(§1) Compounds were submitted to the Developmental Therapeutics Program (DTP) of the National Cancer Institute (NCI). The program uses a panel of 60 human tumor cell lines representing nine tissue types, including leukemia, non-small cell lung cancer (NSCLC), melanoma, colon cancer, ovarian cancer, CNS cancer, renal cancer, prostate cancer, and breast cancer, to screen for potential new anti-cancer agents. […] Primary screening of synthesized compounds was performed by testing a single high dose of 10 µM in the full NCI-60 panel. The percent growth of treated cells relative to the no-drug control and relative to the time zero number of cells was measured, and a mean graph was provided. The percentage inhibition was then calculated by subtracting the values obtained from 100.
(§2) All compounds were subjected to the NCI in vitro disease-oriented human cells screening panel assay. The human tumor cell lines of the cancer-screening panel are grown in RPMI 1640 medium containing 5% fetal bovine serum and 2 mM L-glutamine. For a typical screening experiment, cells are inoculated into 96-well microtiter plates in 100 μL at plating densities ranging from 5000 to 40,000 cells/well depending on the doubling time of individual cell lines. After cell inoculation, the microtiter plates are incubated at 37 °C, 5% CO2, 95% air, and 100% relative humidity for 24 h prior to the addition of experimental drugs. After 24 h, two plates of each cell line are fixed in situ with TCA to represent a measurement of the cell population for each cell line at the time of drug addition. Experimental drugs are solubilized in dimethyl sulfoxide at 400-fold the desired final maximum test concentration and stored frozen prior to use. At the time of drug addition, an aliquot of frozen concentrate is thawed and diluted to twice the desired final maximum test concentration with complete medium containing 50 μg/mL gentamicin. Additional four, 10-fold, or ½ log serial dilutions are made to provide a total of five drug concentrations plus control. Aliquots of 100 μL of these different drug dilutions are added to the appropriate microtiter wells already containing 100 μL of medium, resulting in the required final drug concentrations. Following drug addition, the plates are incubated for an additional 48 h at 37 °C, 5% CO2, 95% air, and 100% relative humidity. For adherent cells, the assay is terminated by the addition of cold TCA. Cells are fixed in situ by the gentle addition of 50 μL of cold 50% (w/v) TCA (final concentration, 10% TCA) and incubated for 60 min at 4 °C. The supernatant is discarded, and the plates are washed five times with tap water and air-dried. Sulforhodamine B (SRB) solution (100 μL) at 0.4% (w/v) in 1% acetic acid is added to each well, and plates are incubated for 10 min at room temperature. After staining, unbound dye is removed by washing five times with 1% acetic acid, and the plates are air-dried. Bound stain is subsequently solubilized with a 10 mM trizma base, and the absorbance is read on an automated plate reader at a wavelength of 515 nm. For suspension cells, the methodology is the same except that the assay is terminated by fixing settled cells at the bottom of the wells by gently adding 50 μL of 80% TCA (final concentration, 16% TCA). Compounds are screened at a dose of 10 µM, hits showing mean growth inhibition over 60 cell lines >50% are escalated for 5-dose screening assay.

The next test has as its system MCF-7 cells. Nature of the test: NCI growth inhibition on MCF-7 (single dose and five-dose, SRB). The format is cell-based, human. As to conditions: for inhibition at 10 µM / GI50: Homo sapiens, MCF7; for GI50: MCF-7, five-dose assay, 48 h. The protocol:
as §1
as §2, with “screening assay. To construct a dose-response curve, about 60 cell lines of nine tumor subpanels were incubated with five concentrations (0.01–100 μM) for each compound. Three response parameters (GI50, TGI, and LC50) were calculated for each cell line.” for “screening assay.”

The structures appear in SMILES notation.

On to `CC(=C(c1ccc(Cl)cc1)c1ccc(OCCN2CCOCC2)cc1)c1ccccc1` [Compound 8, E/Z-4-(2-{4-[1-(4-Chloro-phenyl)-2-phenyl-propenyl]-phenoxy}-ethyl)-morpholine], for which, in the test on 60 NCI tumor cell lines, the “anti-proliferative activity (in words)” value was “lacked anti-proliferative activity” and at 10 µM the inhibition was 9.4%. For the same compound, in the test with MCF-7 cells (10 µM), 10 µM produced 30.9% inhibition.

Take `COc1cc(C(C)=C(c2ccc(Cl)cc2)c2ccc(OCCN3CCCCC3)cc2)ccc1F` [Compound 24, E/Z-1-(2-{4-[1-(4-Chlorophenyl)-2-(4-fluoro-3-methoxyphenyl)-propenyl]-phenoxy}-ethyl)-piperidine]: the inhibition (usually the change of the read-out against control, counted positive when it falls) at 10 µM turned out to be 29.2% in the test on 60 NCI tumor cell lines and 49.3% in the test with MCF-7 cells (10 µM).

Turning to `COc1cc(C(C)=C(c2ccc(Cl)cc2)c2ccc(OCCN3CCCCCC3)cc2)ccc1F` [Compound 26, E/Z-1-(2-{4-[1-(4-Chlorophenyl)-2-(4-fluoro-3-methoxyphenyl)-propenyl]-phenoxy}-ethyl)-azepane], the inhibition at 10 µM in the test on 60 NCI tumor cell lines turned out to be 28.3%; with MCF-7 cells (10 µM) it was 36.5%.

As to `CCN(CC)CCOc1ccc(C(=C(C)c2ccc(F)c(OC)c2)c2ccc(Cl)cc2)cc1` [Compound 28, E/Z-(2-{4-[1-(4-Chlorophenyl)-2-(4-fluoro-3-methoxyphenyl)-propenyl]-phenoxy}-ethyl)-diethyl-amine], the inhibition at 10 µM in the test with 60 NCI tumor cell lines was 92.3%; in the test on MCF-7 cells (10 µM) it was more than 100%. For the same compound, the GI50 (as a rule, the concentration giving 50% growth inhibition) with MCF-7 cells was determined as 2170 nM.

As to `CC(=C(c1ccc(Cl)cc1)c1ccc(OCCN2CCCC2)cc1)c1ccccc1` [Compound 6, E/Z-1-(2-{4-[1-(4-Chloro-phenyl)-2-phenyl-propenyl]-phenoxy}-ethyl)-pyrrolidine], the inhibition at 10 µM in the test on 60 NCI tumor cell lines turned out to be 37.8%; in the test with MCF-7 cells (10 µM), 66.2%.

With `COc1cc(C(C)=C(c2ccc(Cl)cc2)c2ccc(OCCN(C)C)cc2)ccc1F` [Compound 27, E/Z-(2-{4-[1-(4-Chlorophenyl)-2-(4-fluoro-3-methoxyphenyl)-propenyl]-phenoxy}-ethyl)-dimethyl-amine], the inhibition at 10 µM stood at 47.2% with 60 NCI tumor cell lines and 68.3% with MCF-7 cells (10 µM).

With `COc1cc(C(C)=C(c2ccc(O)cc2)c2ccc(Cl)cc2)ccc1F` [Compound 4, E/Z-4-[1-(4-Chlorophenyl)-2-(4-fluoro-3-methoxyphenyl)propenyl]-phenol], in the test on 60 NCI tumor cell lines, the “anti-proliferative activity (in words)” value is “lacked anti-proliferative activity” and the inhibition at 10 µM turned out to be 15.4%. Besides, in the test on MCF-7 cells (10 µM), the “Growth Inhibition on MCF-7 (%)” value was “No inhibition”.

As to `COc1ccc(C(C)=C(c2ccc(Cl)cc2)c2ccc(OCCN3CCCCCC3)cc2)cc1F` [Compound 19, E/Z-1-(2-{4-[1-(4-Chlorophenyl)-2-(3-fluoro-4-methoxyphenyl)-propenyl]-phenoxy}-ethyl)-azepane], the inhibition at 10 µM in the test on 60 NCI tumor cell lines is 60.8%; in the test on MCF-7 cells (10 µM) it was 75.9%. In the test with MCF-7 cells, this compound showed a GI50 of 3590 nM.

`CC(=C(c1ccc(Cl)cc1)c1ccc(OCCN2CCCCC2)cc1)c1ccccc1` [Compound 7, E/Z-1-(2-{4-[1-(4-Chloro-phenyl)-2-phenyl-propenyl]-phenoxy}-ethyl)-piperidine]: the inhibition at 10 µM stood at 29% in the test on 60 NCI tumor cell lines and 56.4% in the test on MCF-7 cells (10 µM).

Regarding `COc1cc(C(C)=C(c2ccc(Cl)cc2)c2ccc(OCCN3CCCC3)cc2)ccc1F` [Compound 23, E/Z-1-(2-{4-[1-(4-Chlorophenyl)-2-(4-fluoro-3-methoxyphenyl)-propenyl]-phenoxy}-ethyl)-pyrrolidine], the values for the inhibition at 10 µM in the test on 60 NCI tumor cell lines and in the test with MCF-7 cells (10 µM) were 46.9% and 73.5%, respectively.
